Patent US9096591B2, “Tetracyclic compounds” (Medivation Technologies, Inc., priority 2007, dated 2015)

How the values were obtained:
[1] = biological target: T1, human recombinant adrenergic α2A receptor (Homo sapiens, UniProt P08913); experiment: Adrenergic α2A radioligand binding ([3H]MK-912); parameters: Inhibition of ligand binding, Adren. alpha2A: concentration or dose not given beside the values; conditions: percent inhibition of specific binding
T1 construct: expressed in transfected cells; host or cells: insect Sf9 cells
T1 sequence (P08913 1-465): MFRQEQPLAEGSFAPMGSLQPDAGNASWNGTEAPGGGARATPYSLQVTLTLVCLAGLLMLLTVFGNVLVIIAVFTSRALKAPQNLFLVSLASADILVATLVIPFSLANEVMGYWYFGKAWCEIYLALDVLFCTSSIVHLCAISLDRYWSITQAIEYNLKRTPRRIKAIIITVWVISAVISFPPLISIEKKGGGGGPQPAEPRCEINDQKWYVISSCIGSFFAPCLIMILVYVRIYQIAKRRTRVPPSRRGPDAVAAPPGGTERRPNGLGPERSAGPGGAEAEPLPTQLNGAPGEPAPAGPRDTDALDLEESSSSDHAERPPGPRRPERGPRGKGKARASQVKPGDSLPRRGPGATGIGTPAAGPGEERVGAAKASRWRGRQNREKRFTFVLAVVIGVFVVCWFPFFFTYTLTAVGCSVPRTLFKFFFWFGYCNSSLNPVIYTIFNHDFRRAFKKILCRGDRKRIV
Method in brief: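 Membranes from Sf9 cells expressing the receptor were incubated with 1 nM [3H]MK-912 for 60 minutes at 25° C in 50 mM Tris-HCl pH 7.4, 12.5 mM MgCl2, 2 mM EDTA. 10 μM WB-4101 defined non-specific binding. Values are percent inhibition of specific bound radioactivity after filtration.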

C57BL/6 mice = experiment: Recognition of a new location of the known object (spatial memory); format: in vivo; conditions: 10 mg/kg
Text: The object recognition test is based on the fact that mice and rats spontaneously explore new object or location of a known object a lot longer than the know object or a known location of an object. This test was first used in rats (Ennaceur A., Delacour J., 1988). It was further shown by others that this type of memory testing is suitable for mice (Dodart J. et al. 1997, Messier C. 1997, Pittenger C. et al., 2002, Ryabinin A. et al., 2002, Sargolini F. et al., 2003). The method of recognition of an object is divided in two stages. The first one involves the recognition of a new location of a known object, which is used to assess spatial memory. The second one includes a test for recognition of a new in order to evaluate the non-spatial memory (Gaffan D., 1992, Kolb B. et al., 1994, Steckler T., 1998). Currently, both are widely used to determine the effectiveness of newly synthesized drugs on memory.
All experiments were carried out on 3-4 months old males (C57BL/6 line) 22-26 g weight with 10 animals in each group. All animals were kept in the animal facility (5 animals per cage) on the 12×12 hours light cycle (8 am-8 pm) with free access to food and water. […] Brown glass vials were used as test objects which are 2.7 cm in diameter (1.1 inch) and 5.5 cm high (2.2 inch). All vials were treated with 85% ethanol 2-3 minutes before each testing. Animals were placed in the center of the chamber.
Dimebon and compounds of the invention were dissolved in distilled water and administered orally at 0.05 mL per 10 g of animal mass 1 hour before the training exercise. All animals in the control group were treated with the equivalent dose of vehicle. The testing was performed 48 hours after the training exercise because animals forget the location of the object during the 48-hour resting time.
On the first day animals were brought in the testing room so that they could adapt to the testing environment for 20-30 min. Subsequently, each animal was placed in the empty testing chamber for 10 min, which was wiped with alcohol beforehand. After that animals were transferred back into the […] and returned to the animal facility.
The next day after habituation, the animals were brought back into the testing room where they were weighed and injected with the testing compound. An hour after injection, each animal was placed into the testing camber which had two identical objects that were positioned 14.5 cm (5.7 inches) from the corners on the diagonal. The training exercise lasted for 15 min for each animal. Subsequently, each animal was placed back into the cage and returned into the animal house.
The testing procedure was performed 48 hours after the training exercise. During the procedure two objects were used as in the training exercise. […] The amount of time that each animal spent on exploration each object was determined with 0.1 sec accuracy using two electronic stopwatches for total of 10 min. […] The survey of the object was counted as positive if the nose of an animal was pointed within 2 cm or if the animal was touching the objected directly with the nose.
Due to fair differences in the amount of time that each animal surveyed the object, the percentage of the survey time for each animal was determined using this formula: tNL/(tFL+tNL)×100 (where t is time, NL—new location(object), and FL—familiar location(object)). […] Subsequently, the statistical significance was analyzed using a Student's t-test criteria.

| Compound | Inhibition of ligand binding, Adren. alpha2A [1] [%] | time to explore the known object in a new location, % of the total time (C57BL/6 mice) [%] | time to explore the object in a known position, % of the total time (C57BL/6 mice) [%] |
| --- | --- | --- | --- |
| CN1CCc2c(c3cc(Cl)ccc3n2CCc2ccc(C(F)(F)F)nc2)C1 [Compound 250] | 91 | – | – |
| Cc1ccc2c(c1)c1c(n2CCc2ccc(C)nc2)CCN(C)C1 [Dimebon, dimebon, reference compound] | 91 | 61.2±5 | 38.8±5 |
